# Reference: article PMC10461829, “NlpC/P60 peptidoglycan hydrolases of Trichomonas vaginalis have complementary activities that empower the protozoan to control host-protective lactobacilli” (PLOS Pathogens, 2023)
# Target: T1, TvNlpC_B3 (Trichomonas vaginalis, UniProt A2FQ38)
# T1 construct: gene TVAG_042760; N-terminal His6-3C tag cleaved; E. coli BL21(DE3), pET47b; model Asn23-Tyr137; catalytic Cys53/His99/His111; no SH3 domain; E64 adduct 14,046 Da
# Experiment: X-ray crystal structure of complex; mass spectrometry of covalent adduct
# Type: binding
# Conditions: covalent at Cys53 via C2; at least 5:1 molar ratio, 1 h, room temperature; only a 131 Da fragment of E64 modelled, intact adduct seen by mass spectrometry
smiles,measurement,value
CC(C)C[C@H](NC(=O)[C@H]1O[C@@H]1C(=O)O)C(=O)NCCCCNC(=N)N [E64],X-ray crystal structure of complex; mass spectrometry of covalent adduct,The structure of TvNlpC_B3 bound to the inhibitor E64 was determined by molecular replacement
